Experimental data published in patent US20110044938A1 (NYCOMED GMBH, priority 2006, published 2011).

Assays:
[1] = test system: RKO (RKOp27) human colon adenocarcinoma cells; test: Alamar Blue cell viability assay, anti-proliferative/cytotoxic activity on proliferating RKO subclones; assay type: cell-based; conditions: RKOp27, 72 h, RKO p27 uninduced (proliferating) cells, value = class bound given in Table A, read-out: −logIC50 RKO p27 uninduced (proliferating) (converted)
Outline: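 RKOp27 subclones (5000 cells/well) were exposed 24 h after seeding to semi-log compound dilutions in DMEM with 10% FCS, in quadruplicate, for 72 h at 37 °C. Viability was read by Alamar Blue fluorescence (544/590 nm) relative to untreated cells (1% DMSO medium). IC50 came from concentration-effect curves and is reported as −log IC50 [mol/l].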

[2] = test system: subclones of RKO colon adenocarcinoma cells (RKOp27 or RKOp21) arrested by Ponasterone A; test: Alamar Blue cell viability assay, cell cycle specific mode of action: cells arrested by ectopic p27Kip1 induced by Ponasterone A versus proliferating cells; assay type: cell-based; conditions: Homo sapiens, RKO p27 induced (arrested) cells, 10 μM Ponasterone A, 72 hours, value = class bound given in Table A, read-out: −logIC50 RKO p27 induced (arrested) (converted)
Outline: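 RKOp27 or RKOp21 cells, 15000/well in DMEM/10% FCS, either arrested by p27Kip1 induced with 10 μM Ponasterone A or proliferating without inducer; compound added after 24 h, 72 h at 37° C. Alamar Blue fluorescence (544/590 nm), viability as % of untreated cells; −log IC50 reported.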

Compound | IC50 [2] [nM] | IC50 [1] [nM]
COCC1CCCN1C(=O)OCC1CCc2c(sc(NC(=O)/C=C/c3cccnc3)c2C#N)C1 (stereo not shown) [Example 89, 2-(Methoxymethyl) pyrrolidine-1-carboxylic acid 3-cyano-2-((E)-3-pyridin-3-yl-allanoylamino)-4,5,6,7-tetrahydro-benzo[b]thiophen-6-ylmethyl ester] | ≥ 100000 | ≤ 501
COC[C@@H]1CCCN1C(=O)OCC1CCc2c(sc(NC(=O)/C=C/c3cccnc3)c2C#N)C1 (stereo partly drawn) [Example 90, 2-(S)-(Methoxymethyl) pyrrolidine-1-carboxylic acid 3-cyano-2-((E)-3-pyridin-3-yl-allanoylamino)-4,5,6,7-tetrahydro-benzo[b]thiophen-6-ylmethyl ester] | ≥ 100000 | ≤ 501
CCN(C)C(=O)OC1CCc2c(sc(NC(=O)/C=C/c3cccnc3)c2C#N)C1 (stereo not shown) [Example 91, Ethyl-methyl-carbamic acid 3-cyano-2-((E)-3-pyridin-3-yl-allanoylamino)-4,5,6,7-tetrahydro-benzo[b]thiophen-6-yl ester] | ≥ 100000 | ≤ 501
N#Cc1c(NC(=O)/C=C/c2cccnc2)sc2c1CCC(OC(=O)N1CC=CC1)C2 (stereo not shown) [Example 92, 2,5-Dihydro-pyrrole-1-carboxylic acid 3-cyano-2-((E)-3-pyridin-3-yl-allanoylamino)-4,5,6,7-tetrahydro-benzo[b]thiophen-6-yl ester] | ≥ 100000 | ≤ 501
CC1CCCN1C(=O)OC1CCc2c(sc(NC(=O)/C=C/c3cccnc3)c2C#N)C1 (stereo not shown) [Example 93, 2-Methylpyrrolidine-1-carboxylic acid 3-cyano-2-((E)-3-pyridin-3-yl-allanoylamino)-4,5,6,7-tetrahydro-benzo[b]thiophen-6-yl ester] | ≥ 100000 | ≤ 501
Cc1cc(CNC(=O)OC2CCc3c(sc(NC(=O)/C=C/c4cccnc4)c3C#N)C2)on1 (stereo not shown) [Example 94, (3-Methyl-isoxazol-5-ylmethyl)-carbamic acid 3-cyano-2-((E)-3-pyridin-3-yl-allanoylamino)-4,5,6,7-tetrahydro-benzo[b]thiophen-6-yl ester] | ≥ 100000 | ≤ 501
Cc1cc(CNC(=O)OC2CCc3c(sc(NC(=O)/C=C/c4cccnc4)c3C#N)C2)n(C)n1 (stereo not shown) [Example 95, (2,5-Dimethyl-2H-pyrazol-3-ylmethyl)-carbamic acid 3-cyano-2-((E)-3-pyridin-3-yl-allanoylamino)-4,5,6,7-tetrahydro-benzo[b]thiophen-6-yl ester] | ≥ 100000 | ≤ 501
N#Cc1c(NC(=O)/C=C/c2cccnc2)sc2c1CCC(OC(=O)N1CCC(O)CC1)C2 (stereo not shown) [Example 96, 4-Hydroxy-piperidine-1-carboxylic acid 3-cyano-2-((E)-3-pyridin-3-yl-allanoylamino)-4,5,6,7-tetrahydro-benzo[b]thiophen-6-yl ester] | ≥ 100000 | ≤ 501
CC(C)N(C)C(=O)OCC1CCc2c(sc(NC(=O)/C=C/c3cccnc3)c2C#N)C1 (stereo not shown) [Example 97, Isopropyl-methyl-carbamic acid 3-cyano-2-((E)-3-pyridin-3-yl-allanoylamino)-4,5,6,7-tetrahydro-benzo[b]thiophen-6-ylmethyl ester] | ≥ 100000 | ≤ 501
N#Cc1c(NC(=O)/C=C/c2cccnc2)sc2c1CCC(COC(=O)NC1CCC1)C2 (stereo not shown) [Example 98, Cyclobutyl-carbamic acid 3-cyano-2-((E)-3-pyridin-3-yl-allanoylamino)-4,5,6,7-tetrahydro-benzo[b]thiophen-6-ylmethyl ester] | ≥ 100000 | ≤ 501
N#Cc1c(NC(=O)/C=C/c2cccnc2)sc2c1CCC(COC(=O)NC1CC1)C2 (stereo not shown) [Example 99, Cyclopropyl-carbamic acid 3-cyano-2-((E)-3-pyridin-3-yl-allanoylamino)-4,5,6,7-tetrahydro-benzo[b]thiophen-6-ylmethyl ester] | ≥ 100000 | ≤ 501
N#Cc1c(NC(=O)/C=C/c2cccnc2)sc2c1CCC(COC(=O)N[C@H]1CC[C@H](O)CC1)C2 (stereo partly drawn) [Example 100, trans-4-Hydroxycyclohexyl-carbamic acid 3-cyano-2-((E)-3-pyridin-3-yl-allanoylamino)-4,5,6,7-tetrahydro-benzo[b]thiophen-6-ylmethyl ester] | ≥ 100000 | 501 to 2000
CC(C)NC(=O)OCC1CCc2c(sc(NC(=O)/C=C/c3cccnc3)c2C#N)C1 (stereo not shown) [Example 101, Isopropyl-carbamic acid 3-cyano-2-((E)-3-pyridin-3-yl-allanoylamino)-4,5,6,7-tetrahydro-benzo[b]thiophen-6-ylmethyl ester] | ≥ 100000 | ≤ 501
CC(CO)NC(=O)OCC1CCc2c(sc(NC(=O)/C=C/c3cccnc3)c2C#N)C1 (stereo not shown) [Example 102, (2-Hydroxy-1-methyl-ethyl)-carbamic acid 3-cyano-2-((E)-3-pyridin-3-yl-allanoylamino)-4,5,6,7-tetrahydro-benzo[b]thiophen-6-ylmethyl ester] | ≥ 100000 | 501 to 2000
CCCNC(=O)OCC1CCc2c(sc(NC(=O)/C=C/c3cccnc3)c2C#N)C1 (stereo not shown) [Example 103, Propyl-carbamic acid 3-cyano-2-((E)-3-pyridin-3-yl-allanoylamino)-4,5,6,7-tetrahydro-benzo[b]thiophen-6-ylmethyl ester] | ≥ 100000 | 501 to 2000
N#Cc1c(NC(=O)/C=C/c2cccnc2)sc2c1CCC(COC(=O)N1CCC[C@H]1CO)C2 (stereo partly drawn) [Example 104, 2-(S)-(Hydroxymethyl) pyrrolidine-1-carboxylic acid 3-cyano-2-((E)-3-pyridin-3-yl-allanoylamino)-4,5,6,7-tetrahydro-benzo[b]thiophen-6-ylmethyl ester] | ≥ 100000 | ≤ 501
N#Cc1c(NC(=O)/C=C/c2cccnc2)sc2c1CCC(COC(=O)NCC1CC1)C2 (stereo not shown) [Example 105, Cyclopropylmethyl-carbamic acid 3-cyano-2-((E)-3-pyridin-3-yl-allanoylamino)-4,5,6,7-tetrahydro-benzo[b]thiophen-6-ylmethyl ester] | ≥ 100000 | ≤ 501

More lines, main results first:

IC50 [2] [nM] | Compound | IC50 [1] [nM]
≥ 100000 | N#Cc1c(NC(=O)/C=C/c2cccnc2)sc2c1CCC(OC(=O)N[C@H]1CC[C@H](O)CC1)C2 (stereo partly drawn) [Example 106, trans-4-Hydroxycyclohexyl-carbamic acid 3-cyano-2-((E)-3-pyridin-3-yl-allanoylamino)-4,5,6,7-tetrahydro-benzo[b]thiophen-6-yl ester] | 501 to 2000
≥ 100000 | CCCNC(=O)OC1CCc2c(sc(NC(=O)/C=C/c3cccnc3)c2C#N)C1 (stereo not shown) [Example 107, Propyl-carbamic acid 3-cyano-2-((E)-3-pyridin-3-yl-allanoylamino)-4,5,6,7-tetrahydro-benzo[b]thiophen-6-yl ester] | ≤ 501
≥ 100000 | N#Cc1c(NC(=O)/C=C/c2cccnc2)sc2c1CCC(OC(=O)N1CCC[C@H]1CO)C2 (stereo partly drawn) [Example 108, 2-(S)-(Hydroxymethyl) pyrrolidine-1-carboxylic acid 3-cyano-2-((E)-3-pyridin-3-yl-allanoylamino)-4,5,6,7-tetrahydro-benzo[b]thiophen-6-yl ester] | 501 to 2000
≥ 100000 | N#Cc1c(NC(=O)/C=C/c2cccnc2)sc2c1CCC(OC(=O)NCC1CC1)C2 (stereo not shown) [Example 109, Cyclopropylmethyl-carbamic acid 3-cyano-2-((E)-3-pyridin-3-yl-allanoylamino)-4,5,6,7-tetrahydro-benzo[b]thiophen-6-yl ester] | ≤ 501
≥ 100000 | N#Cc1c(NC(=O)/C=C/c2cccnc2)sc2c1CCC(OC(=O)NC1CCCC1)C2 (stereo not shown) [Example 110, Cyclopentyl-carbamic acid 3-cyano-2-((E)-3-pyridin-3-yl-allanoylamino)-4,5,6,7-tetrahydro-benzo[b]thiophen-6-yl ester] | ≤ 501
≥ 100000 | N#Cc1c(NC(=O)/C=C/c2cccnc2)sc2c1CCC(OC(=O)N1CCCCC1)C2 (stereo not shown) [Example 111, Piperidine-1-carboxylic acid 3-cyano-2-((E)-3-pyridin-3-yl-allanoylamino)-4,5,6,7-tetrahydro-benzo[b]thiophen-6-yl ester] | ≤ 501
≥ 100000 | C=CCN(C)C(=O)OCC1CCc2c(sc(NC(=O)/C=C/c3cccnc3)c2C#N)C1 (stereo not shown) [Example 112, Allyl-methyl-carbamic acid 3-cyano-2-((E)-3-pyridin-3-yl-allanoylamino)-4,5,6,7-tetrahydro-benzo[b]thiophen-6-ylmethyl ester] | ≤ 501
≥ 100000 | N#Cc1c(NC(=O)/C=C/c2cccnc2)sc2c1CCC(OC(=O)N1CCCC(O)C1)C2 (stereo not shown) [Example 113, 3-Hydroxy-piperidine-1-carboxylic acid 3-cyano-2-((E)-3-pyridin-3-yl-allanoylamino)-4,5,6,7-tetrahydro-benzo[b]thiophen-6-yl ester] | ≤ 501
≥ 100000 | N#Cc1c(NC(=O)/C=C/c2cccnc2)sc2c1CCC(COC(=O)N1CCC(O)CC1)C2 (stereo not shown) [Example 114, 4-Hydroxy-piperidine-1-carboxylic acid 3-cyano-2-((E)-3-pyridin-3-yl-allanoylamino)-4,5,6,7-tetrahydro-benzo[b]thiophen-6-ylmethyl ester] | ≤ 501
